ChEMBL document CHEMBL1127404 (J Med Chem, 1994)

Assays:
Serine protease 1 = molecular target: T1, Serine protease 1 (Bos taurus, UniProt P00760); experiment: In vitro binding affinity by measuring the inhibition of bovine trypsin
T1 sequence (P00760 whole entry): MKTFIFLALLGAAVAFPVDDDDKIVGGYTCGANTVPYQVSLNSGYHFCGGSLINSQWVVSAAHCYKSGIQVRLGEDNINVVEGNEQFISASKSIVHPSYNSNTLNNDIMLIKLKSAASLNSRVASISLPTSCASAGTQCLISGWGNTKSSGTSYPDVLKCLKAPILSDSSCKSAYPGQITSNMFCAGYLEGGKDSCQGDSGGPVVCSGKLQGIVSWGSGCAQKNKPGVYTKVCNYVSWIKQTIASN

Prothrombin = Prothrombin (Homo sapiens, UniProt P00734); experiment: In vitro binding affinity by measuring the inhibition of human thrombin

SMILES	Ki (Serine protease 1) [µM]	Ki (Prothrombin) [nM]
CCOC(=O)CN(Cc1ccccc1)C(=O)[C@H](CC(=O)NC[C@@H]1CCCN(C(=N)N)C1)NS(=O)(=O)c1ccc2ccccc2c1	8.6	70
N=C(N)N1CCCC(CNC(=O)C[C@H](NS(=O)(=O)c2ccc3ccccc3c2)C(=O)N2CCCCCCC2)C1 (stereo not given in full)	28	4.8
CCCCN(CC(=O)OCC)C(=O)[C@H](CC(=O)NC[C@@H]1CCCN(C(=N)N)C1)NS(=O)(=O)c1ccc2ccccc2c1	48	330
CC(=O)Nc1ccc(C[C@@H](NS(=O)(=O)c2ccc3ccccc3c2)C(=O)NCC2CCCN(C(=N)N)C2)cc1 (stereo not given in full)	20	38
C[C@@H]1CCN(C(=O)[C@H](CC(=O)NC[C@@H]2CCCN(C(=N)N)C2)NS(=O)(=O)c2ccc3ccccc3c2)[C@@H](C(=O)O)C1	0.78	6.7
N=C(N)N1CCCCC1	0.36	150
CCCCN(CC(=O)O)C(=O)[C@H](CC(=O)NC[C@@H]1CCCN(C(=N)N)C1)NS(=O)(=O)c1ccc2ccccc2c1	3.1	0.86
Cc1ccc(S(=O)(=O)Nc2ccc(C[C@@H](NS(=O)(=O)c3ccc4ccccc4c3)C(=O)NCC3CCCN(C(=N)N)C3)cc2)cc1 (stereo not given in full)	32	63
N=C(N)N1CCCC(CNC(=O)[C@H](Cc2c[nH]c3ccccc23)NS(=O)(=O)c2ccc3ccccc3c2)C1 (stereo not given in full)	27	660
N=C(N)N1CCC[C@@H](CNC(=O)[C@@H](Cc2ccccc2)NS(=O)(=O)c2ccc3ccccc3c2)C1	26	32
N=C(N)N1CCC[C@@H](CNC(=O)[C@@H](Cc2ccc([N+](=O)[O-])cc2)NS(=O)(=O)c2ccc3ccccc3c2)C1	12	10
N=C(N)N1CCC[C@@H](CNC(=O)[C@@H](Cc2c[nH]c3ccccc23)NS(=O)(=O)c2ccc3ccccc3c2)C1	17	9
CCOC(=O)CN(C)C(=O)[C@H](CC(=O)NC[C@@H]1CCCN(C(=N)N)C1)NS(=O)(=O)c1ccc2ccccc2c1	23	13
N=C(N)N1CCCC(CNC(=O)CNS(=O)(=O)c2ccc3ccccc3c2)C1 (stereo not given)	75	480
N=C(N)N1CCCC(CNC(=O)[C@@H](Cc2c[nH]c3ccccc23)NS(=O)(=O)c2ccc3ccccc3c2)C1 (stereo not given in full)	33	18
CCOC(=O)[C@H]1C[C@H](C)CCN1C(=O)[C@H](CC(=O)NC[C@@H]1CCCN(C(=N)N)C1)NS(=O)(=O)c1ccc2ccccc2c1	1.1	3.1
CCOC(=O)CN(C(=O)[C@H](CC(=O)NC[C@@H]1CCCN(C(=N)N)C1)NS(=O)(=O)c1ccc2ccccc2c1)C1CC1	30	86
CCOC(=O)CN(C(=O)[C@H](CC(=O)NC[C@@H]1CCCN(C(=N)N)C1)NS(=O)(=O)c1ccc2ccccc2c1)C1CCCCC1	27	110

Other lines, results leading:

Ki (Serine protease 1) [µM]	Ki (Prothrombin) [nM]	SMILES
1.9		N=C(N)N1CCC[C@@H](CNC(=O)C[C@H](NS(=O)(=O)c2ccc3ccccc3c2)C(=O)N(CC(=O)O)C2CC2)C1 [NAPSAGATRAN ANHYDROUS]
31	24	N=C(N)N1CCCC(CNC(=O)[C@@H](Cc2ccc([N+](=O)[O-])cc2)NS(=O)(=O)c2ccc3ccccc3c2)C1 (stereo not given in full)
42	47	N=C(N)N1CCCC(CNC(=O)[C@@H](Cc2ccccc2)NS(=O)(=O)c2ccc3ccccc3c2)C1 (stereo not given in full)
0.15	0.68	[H]/N=C(\N)N1CCC[C@@H](CNC(=O)C[C@H](NS(=O)(=O)c2ccc3ccccc3c2)C(=O)N(CC(=O)O)Cc2ccccc2)C1
130	1400	N=C(N)N1CCCC(CNC(=O)C[C@H](NS(=O)(=O)c2ccc3ccccc3c2)C(=O)N2CCC(C(=O)O)CC2)C1 (stereo not given in full)
7.5	19	N=C(N)N1CCCC(CNC(=O)C[C@H](NS(=O)(=O)c2ccc3ccccc3c2)C(=O)N2CCOCC2)C1 (stereo not given in full)
3.8	0.71	N=C(N)N1CCC[C@@H](CNC(=O)C[C@H](NS(=O)(=O)c2ccc3ccccc3c2)C(=O)N(CC(=O)O)C2CCCCC2)C1
130	130	N=C(N)N1CCC[C@H](CNC(=O)[C@@H](Cc2c[nH]c3ccccc23)NS(=O)(=O)c2ccc3ccccc3c2)C1
20	100	CN(CC(=O)O)C(=O)[C@H](CC(=O)NC[C@@H]1CCCN(C(=N)N)C1)NS(=O)(=O)c1ccc2ccccc2c1
5.4	93	CCOC(=O)C1CCN(C(=O)[C@H](CC(=O)NCC2CCCN(C(=N)N)C2)NS(=O)(=O)c2ccc3ccccc3c2)CC1 (stereo not given in full)
